What was measured:
[1] = Cytotoxicity against human GES1 cells assessed as reduction in cell viability incubated for 72 hrs by MTT assay; assay type: toxicity, cell-based
HepG2 [2] = assay: Induction of apoptosis in human HepG2 cells assessed as increase in cleaved caspase-3 level at 0.625 to 2.5 uM incubated for 24 hrs by Western blot analysis; assay type: functional, cell-based; conditions: dose 0.625-2.5 µM
HepG2 [3] = assay: Induction of apoptosis in human HepG2 cells assessed as total apoptotic cells at 1.25 uM incubated for 24 hrs by Annexin-V/PI staining based flow cytometry (Rvb=5.14%); assay type: functional
HepG2 [4] = assay: Induction of cell cycle arrest in human HepG2 cells assessed as accumulation at S phase at 0.625 uM incubated for 24 hrs by flow cytometry (Rvb= 20.1%); assay type: functional
HepG2 [5] = assay: Induction of cell cycle arrest in human HepG2 cells assessed as accumulation at G0/G1 phase at 0.625 uM incubated for 24 hrs by flow cytometry (Rvb= 46.5%); assay type: functional
HepG2 [6] = assay: Induction of apoptosis in human HepG2 cells assessed as early apoptotic cells at 2.5 uM incubated for 24 hrs by Annexin-V/PI staining based flow cytometry (Rvb=4.48%); assay type: functional
HepG2 [7] = assay: Induction of apoptosis in human HepG2 cells assessed as viable cells at 2.5 uM incubated for 24 hrs by Annexin-V/PI staining based flow cytometry (Rvb=94.0%); assay type: functional; conditions: read-out: Activity
HepG2 [8] = assay: Induction of apoptosis in human HepG2 cells assessed as late apoptotic cells at 5 uM incubated for 24 hrs by Annexin-V/PI staining based flow cytometry (Rvb=0.66%); assay type: functional
HepG2 [9] = assay: Antimigratory activity against human HepG2 cells assessed as decrease in Snail expression at 0.625 to 2.5 uM incubated 24 hrs by Western blot analysis; assay type: functional, cell-based; conditions: dose 0.625-2.5 µM
HepG2 [10] = assay: Antiproliferative activity against human HepG2 cells assessed as reduction in cell viability incubated for 72 hrs by MTT assay; assay type: functional, cell-based; conditions: HepG2, 72 h
HepG2 [11] = assay: Induction of cell cycle arrest in human HepG2 cells assessed as accumulation at G0/G1 phase at 5 uM incubated for 24 hrs by flow cytometry (Rvb= 46.5%); assay type: functional

CC(=O)Nc1ccc(Oc2ccc(F)cc2F)c(-c2ccc3[nH]c(=O)c(C)nc3c2)c1
IC50 at 72 h [1]: 57.2 µM
Activity (HepG2 [2]): Dose-Dependent Effect
Activity (HepG2 [3]): 7.66%
Activity (HepG2 [4]): 20%
Activity (HepG2 [5]): 46.1%
Activity (HepG2 [6]): 7.22%
viability at 2.5 µM (HepG2 [7]): 90.6%
Activity (HepG2 [8]): 1.26%
Activity (HepG2 [9]): Dose-Dependent Effect
IC50 (HepG2 [10]): 1.13 µM
Activity (HepG2 [11]): 54.9%
